The record followed here is patent US20080008999A1, “Process for detecting the existence of mesenchymal chrondrosarcoma” (priority 2004, published 2008).

Counter-ions that a name gives are not always drawn.

Assay [1] relates to epithelial carcinoma cells. The assay is described as follows: exposure of cells to radiolabeled lineage specific hormones (FIG. 19). The format is cell-based. From the text:
FIG. 19 is a representation of the results of exposing cells to various lineage specific hormones. […] Reference may be had to U.S. Pat. No. 6,565,827 (radioimmunotherapy of lymphoma using anti-CD20 antibodies), U.S. Pat. No. 6,287,537 (radioimmunotherapy of lymphoma using anti-CD20 antibodies), U.S. Pat. No. 6,015,542 (radioimmunotherapy of lymphoma using anti-CD20 antibodies), and U.S. Pat. No. 5,843,398 (radioimmunotherapy of lymphoma using anti-CD 20 antibodies). The entire disclosure of these United States patents are hereby incorporated by reference into this specification. […] In another embodiment (see graph 1300) epithelial cells, 1310, and ovarian cancer cells, 1320, are exposed to radiolabeled estrogen. Over 90 percent of the ovarian cancer cells are killed upon exposure to the radiolabeled estrogen but less than 30 percent of the epithelial carcinoma cells are killed upon exposure.

For assay [2], the system named is K562 tumor cells. The experiment in a line: KOR assay, optical density versus time of cell cultures (FIG. 13). The format is cell-based. The source says: Referring again to FIG. 6, and in the preferred embodiment depicted therein, a 96 well microtiter dish 310 is preferably used, and a light source 312 shines light through the samples disposed in such dish. The light source preferably provides light with a wavelength of from 200 about 800 nanometers. In one embodiment, the wavelength provided by the light source is from about 300 to about 700 nanometers. In yet another embodiment, the wavelength provided by the light source is from about 340 to about 660 nanometers.
Referring again to FIG. 6, and in the preferred embodiment depicted therein, the transmittance values measured by sensor 314 may be converted into optical density values in accordance with the formula: Dw=-log10Tw, wherein Tw is the measured transmittance of the sample measured at the specified wavelength (w) of the light used, and Dw is the optical density of the sample at the specified wavelength of the light used.
Thus, applicant's process allows one to measure the true optical density of a sample rather than mere absorbance. Once such optical density has been measured, one can then plot optical density versus time (as illustrated in the Figures of U.S. Pat. No. 6,258,553) and obtain a true rather than a distorted indication of cell apoptosis. […]

Take “radiolabeled epithelial growth factor: radiolabeled ligand used to kill cells that possess receptors for the particular ligand (NSDSECPLSHDGYCLHDGVCMYIEALDKYACNCVVGYIGERCQYRDLKWWELR; Epidermal growth factor radiolabel; UniProt P01133 971-1023, looked up)”: the “epithelial carcinoma cells killed upon exposure” value in assay [1] is “more than 50%”.

With `Cc1ccc(NC(=O)c2ccc(CN3CCN(C)CC3)cc2)cc1Nc1nccc(-c2cccnc2)n1` [imatinib mesylate], the “slope of optical density versus time relative to control slope” value in assay [2] (K562 tumor cells derived from a patient with chronic myelogenous leukemia) was “dose-dependent decrease in slope”. For the same molecule, the “apoptosis peak in the KOR assay” value in assay [2] (optical density versus time) was “do not produce”.
